# In US12043621B2, “Small molecule inhibitors of Interleukin-4” (Trustees of Boston University, priority 2020, dated 2024):
# Tests used:
# IL-4 = biological target: T1, IL-4 (Homo sapiens, UniProt P05112); assay: HEK-Blue IL-4/IL-13 cell-based reporter (SEAP) IL-4 inhibition assay; details: Example 2, quadruplicate; read-out: EC50 of IL-4 inhibition in HEK-Blue IL-4/IL-13 cells
# T1 construct: purchased Acros Biosystems IL4-H4218; host or cells: HEK-293
# T1 sequence (P05112 25-153): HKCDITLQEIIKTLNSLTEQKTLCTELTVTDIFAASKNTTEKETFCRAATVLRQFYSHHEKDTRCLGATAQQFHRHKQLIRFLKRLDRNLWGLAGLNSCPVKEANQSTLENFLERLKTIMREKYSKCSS
# Protocol: HEK-Blue IL-4/IL-13 cells were purchased from Invivogen and maintained in DMEM complete with 10% fetal bovine serum, 10 μg/ml of blasticidin and 100 μg/ml of Zeocin, 100 μg/mL Normocin, and 100 U/mL-100 μg/mL Pen-Strep. Cells used for assays were between passages 12 and 18. […] HEK-Blue IL-4/IL-13 cells were trypsinized, spun down, and resuspended in DMEM with 10% heat-inactivated FBS, and 100 U/mL-100 μg/mL Pen-Strep at a concentration of 3.125E5/mL. 160 μL of the cell suspension was added to each well of a 96 well plate, avoiding the edges of the plate and equilibrated in an incubator for 1 hour. After 2 hours, 40 μL of the small molecule/IL-4 solution was added to each well. Each measurement performed in quadruplicate. Cells were incubated for 20 hours at 37° C./5% CO2. Quanti-Blue was prepared according to manufacture and 160 μL added to each well of a 96 well plate, avoiding edges. 40 μL of cell supernatant was added to each well and then incubated for 3 hours at 37° C. The optical density was then read at 650 nm with a Molecular Devices SpectraMax M5 Microplate Reader. Data was plotted and analyzed in GraphPad Prism 8.
# HEK-Blue IL-4/IL-13 cells were purchased from Invivogen and maintained in DMEM complete with 10% fetal bovine serum, 10 μg/ml of blasticidin and 100 μg/ml of Zeocin, 100 μg/mL Normocin, and 100 U/mL-100 μg/mL Pen-Strep. Cells used for assays were between passages 12 and 18. Prior to screening small molecules, the SEAP production induced by IL-4 alone was tested in the cells (FIG. 13) and determined to be 0.3 ng/mL. The EC25 for the IL-4 induced SEAP production (0.1 ng/mL final well concentration) was chosen for running small molecule inhibition assays.
# For screening small molecules, 25 µL of each molecule (FIG. 9) in DMEM with 4% DMSO was added to 25 μL of 1 ng/ml IL-4 in DMEM and incubated for 2 hours at 37° C. HEK-Blue IL-4/IL-13 cells were trypsinized, spun down, and resuspended in DMEM with 10% heat-inactivated FBS, and 100 U/mL-100 μg/mL Pen-Strep at a concentration of 3.125E5/mL. 160 μL of the cell suspension was added to each well of a 96 well plate, avoiding the edges of the plate and equilibrated in an incubator for 1 hour. After 2 hours, 40 μL of the small molecule/IL-4 solution was added to each well. Each measurement was performed in […]. Cells were incubated for 20 hours at 37° C./5% CO2. Quanti-Blue was prepared according to manufacture and 160 μL added to each well of a 96 well plate, avoiding edges. 40 μL of cell supernatant was added to each well and then incubated for 3 hours at 37° C. The optical density was then read at 650 nm with a Molecular Devices SpectraMax M5 Microplate Reader. Data was plotted and analyzed in GraphPad Prism 8.
# HEK-Blue IL-4/IL-13 cells used to screen analogs of compound 52 from ACS Chemical Biology paper (also referred to herein as D9). Assay was run as described in Examples 2 and 3. All compounds were screened at 10 μM, 1 μM, and 250 nM in quadruplicate. The results are depicted in FIGS. 17-21.
# [1] = tested on: STAT-6 phosphorylation in THP-1 cells; assay: THP-1 STAT-6/pSTAT-6 Western blot assay; type: cell-based; details: Homo sapiens, THP-1, THP-1 cells, IL-4 preincubated with compound, read-out: EC50 of reduction in pSTAT-6 levels
# Protocol: THP-1 cells were maintained in RMPI-1640 with 10% heat-inactivated fetal bovine serum and 50 μM beta-mercaptoethanol. Cells used for assays were between passages 6 and 10. 10 ng/ml IL-4 was preincubated with experimental sample (vehicle, D9 etc) for 2 hours at 37° C. Solutions were then added to 2E6 THP-1 cells in 1 mL. THP-1 cells were incubated for 30 minutes in incubator at 37° C. 5% CO2. Cells were then spun down, lysed with 200 μL ice-cold RIPA buffer complete with phosphatase and protease inhibitors. Cell lysate was incubated on ice for 30 minutes and then stored at −20° C. until western blot analysis. Undiluted cell-lysate was run SDS-PAGE followed by transfer to membrane using Biorad equipment. Membranes were incubated with 1:1000 primary antibody overnight at 4° ° C. Membranes then incubated with 1:50,000 dilution secondary for 1 hour at RT. […] The brightness/contrast was adjusted in […] and the area under the curve of each lane was quantified.
# THP-1 cells were maintained in RMPI-1640 with 10% heat-inactivated fetal bovine serum and 50 μM beta-mercaptoethanol. […] The brightness/contrast was adjusted in FIJI (FIGS. 15 and 16) and the area under the curve of each lane was quantified. The ratio of phosphorylated STAT6 to STAT6 was calculated and normalized to the amount of total STAT6. The data was plotted and analyzed using Graphpad Prism 8.
# pSTAT6 in Ramos cells = assay: Reduction of pSTAT6 in Ramos cells (Western blot); type: cell-based; details: Homo sapiens; Ramos cells (type I receptor complex); read-out: EC50 of pSTAT6 inhibition
# Protocol: Ramos cells were used as cell-based model of IL-4 inhibition. Ramos cells express type I receptor complex (IL-4Rα and γc)—they were used to confirm that the lead compound D9 (compound 1 in Table 3) inhibits IL-4 signaling in this context as well.
# The assay was run as described in Example 2 and 3 for THP-1 cells. Blotting was conducted for pSTAT6 and STAT6 and the percent of pSTAT6 calculated based on total STAT6. All conditions were run in triplicate. The results are depicted in FIGS. 22-23.
smiles,measurement,setting,value
N#Cc1c(-c2ccc(O)c(O)c2)cc(-c2ccc(F)cc2)nc1N [Compound D9],EC50,IL-4,5.73 µM
same,EC50,[1],3.1 µM
same,EC50,pSTAT6 in Ramos cells,6.12 µM
